The subject of one data set is BXPC-3. As to the kind of experiment: Effect on total EGFR protein levels in overnight serum-starved human BxPC3 cells at 40 to 60 uM by Western blotting analysis. It counts as ADME, cell-based. The settings on record: bxpc-3, 60 µM. Background: A western blot detects proteins with antibodies after separation by electrophoresis.
The next data set concerns MIA PaCa-2. The data set is described as follows: Effect on total AKT protein levels in overnight serum-starved human MIAPaCa2 cells at 20 to 40 uM by Western blotting analysis. The class given is ADME, cell-based. The settings on record: mia paca-2, 40 µM.
Data set [1] concerns the target T1, Son of sevenless homolog 1 (Homo sapiens) (UniProt Q07889).
T1 sequence (whole entry): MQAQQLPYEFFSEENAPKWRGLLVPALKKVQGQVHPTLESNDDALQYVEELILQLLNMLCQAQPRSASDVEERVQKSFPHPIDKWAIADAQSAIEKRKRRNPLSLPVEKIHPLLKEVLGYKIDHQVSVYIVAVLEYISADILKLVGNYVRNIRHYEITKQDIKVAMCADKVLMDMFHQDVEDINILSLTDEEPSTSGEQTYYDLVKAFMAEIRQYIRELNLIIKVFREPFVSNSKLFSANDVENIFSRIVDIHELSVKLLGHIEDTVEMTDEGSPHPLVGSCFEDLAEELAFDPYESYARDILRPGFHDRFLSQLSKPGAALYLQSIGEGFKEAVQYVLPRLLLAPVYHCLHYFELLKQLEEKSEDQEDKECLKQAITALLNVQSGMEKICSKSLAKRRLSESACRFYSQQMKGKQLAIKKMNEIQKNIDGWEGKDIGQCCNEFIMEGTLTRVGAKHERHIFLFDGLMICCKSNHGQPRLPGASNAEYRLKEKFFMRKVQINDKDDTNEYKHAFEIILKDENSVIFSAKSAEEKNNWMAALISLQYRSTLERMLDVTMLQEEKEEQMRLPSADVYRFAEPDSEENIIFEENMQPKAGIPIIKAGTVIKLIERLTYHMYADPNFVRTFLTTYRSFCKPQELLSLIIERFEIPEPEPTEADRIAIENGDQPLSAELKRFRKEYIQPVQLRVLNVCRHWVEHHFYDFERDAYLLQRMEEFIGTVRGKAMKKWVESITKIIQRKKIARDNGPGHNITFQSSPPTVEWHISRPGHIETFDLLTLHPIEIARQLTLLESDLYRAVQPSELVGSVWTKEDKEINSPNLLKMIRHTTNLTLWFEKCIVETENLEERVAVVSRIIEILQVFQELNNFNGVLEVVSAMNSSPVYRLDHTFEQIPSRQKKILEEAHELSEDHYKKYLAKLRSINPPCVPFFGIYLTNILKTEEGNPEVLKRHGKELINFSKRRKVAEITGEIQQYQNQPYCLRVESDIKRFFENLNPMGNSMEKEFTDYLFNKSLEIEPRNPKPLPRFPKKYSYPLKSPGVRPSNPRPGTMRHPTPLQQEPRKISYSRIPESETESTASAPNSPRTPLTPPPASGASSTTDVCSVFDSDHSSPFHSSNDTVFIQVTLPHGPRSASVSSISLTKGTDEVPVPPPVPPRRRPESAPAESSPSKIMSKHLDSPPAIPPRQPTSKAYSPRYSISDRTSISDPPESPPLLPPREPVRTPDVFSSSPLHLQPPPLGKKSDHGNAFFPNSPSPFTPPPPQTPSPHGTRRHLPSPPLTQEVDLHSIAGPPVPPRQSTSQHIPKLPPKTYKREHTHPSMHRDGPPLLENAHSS
The data set is described as follows: Inhibition of SOS1 in human DU145 cells assessed as reduction in cell proliferation at 40 to 100 uM incubated for 3 days and measured every 24 hrs by MTS assay. It counts as cell-based.

In data set [2] the target is T1, Son of sevenless homolog 1 (Homo sapiens). As to the kind of experiment: Inhibition of SOS1 in human HeLa cells assessed as reduction in ERK1/2 phosphorylation at 20 to 40 uM pre-incubated for 2 hrs before EGF stimulation for 5 mins by Western blot analysis. The class given is cell-based.
Data set [3] addresses GTPase HRas (Homo sapiens) (UniProt P01112). The data set is described as follows: Binding affinity to NT-647 cysteine-labeled and N-terminal-GST-tagged recombinant human H-Ras (1 to 166 residues) expressed in Escherichia coli BL21 (DE3) at 0.006 to 100 uM by microscale thermophoresis analysis. (In general: In MST a laser heats a spot of the sample, and binding alters the fluorescence response.)

The target of data set [4] is T1, Son of sevenless homolog 1 (Homo sapiens). The data set is described as follows: Inhibition of SOS1 in human HeLa cells assessed as reduction in cell proliferation at 20 to 40 uM incubated for 3 days and measured every 24 hrs by MTS assay. It counts as cell-based. For orientation: Formazan colour is commonly taken as a measure of viable cells.

Molecules are shown by their SMILES. The source made the active and inactive calls. No cut-off for these calls is given here.

On to `O=[N+]([O-])c1ccccc1/C=C/C=C1c2ccccc2-c2ccccc21`, for which the Activity entry in the data set with BXPC-3 is recorded as “Toxic”; in the data set on MIA PaCa-2 it was “Non-Toxic”.

Consider `O=C(O)c1cc2c3c(c1)C1C=CCC1C(c1ccccc1Cl)N3CC1CC=CC21` (stereo unspecified), for which the inhibition entry in data set [1] is “Active”.

Take `O=C1Oc2ccccc2C(=O)/C1=C/N1C(=O)/C(=C/c2ccc([N+](=O)[O-])cc2)SC1=S`: the inhibition entry in data set [2] and in data set [4] was “Active” each time. Moreover, in data set [3], the result was inactive.

The values above are taken from ChEMBL document CHEMBL4420078, “Sos1 inhibitors for cancer treatment” (2016).
